Read-outs that look alike come from different tables or passages of the source.
Assays:
Type in all cases: cell-based
[1] = system: murine pancreatic organoids KRAS MUT p53 MUT; assay: Viability of pancreatic organoids (CellTitre Glo 3D), KRAS G12D; conditions: Mus musculus
Method: Organoid cultures were prepared from the pancreas of LSL-Trp53^R172H/+, Pdx-1-Cre (for Kras WT organoids) or LSL-Trp53^R172H/+, LSL-Kras^G12D/+, Pdx-1-Cre (for Kras^G12D organoids KPC3760 and KPC26684) strains ([Hingorani et al., 2005]). Pancreatic ducts were manually picked after tissue mincing and overnight enzymatic digestion with 0.012% (w/v) collagenase XI (Sigma) and 0.012% (w/v) dispase (GIBCO) in DMEM media containing 1% FBS (GIBCO), before seeding in growth-factor-reduced (GFR) Matrigel (BD) ([Boj et al., 2015]).
Pancreatic organoids were extracted and cultured as detailed above ([Boj et al., 2015]). In brief, pancreatic organoids were seeded at 600 cells per well in a 96 well plate and allowed to grow for 7 days with media replenishment on the 3rd day. Full-grown organoids were then treated with compounds for 72h and viability determined using CellTitre Glo 3D assay (Promega). For viability assays with c-MET siRNA, cells were reverse transfected in a 6 cm dish using Dharmafect 1 (GE Dharmacon) per manufacturer’s instructions. On the following day, cells were trypsinised and plated onto 96 well plates or 6 well plates. The 96 well plates were treated with a dose range of compounds or DMSO, and viability was determined via SRB colorimetric assay. Cells in the 6 well plates were collected at the end of experiment to corroborate knockdown of c-MET by Western blotting.

[2] = target: T1, NanoLuc-PLK4 fusion protein (Homo sapiens, UniProt O00444); assay: NanoLuc thermal shift assay; conditions: compound at 100 μM
T1 construct: NanoLuc fused to the N-termini of full-length human PLK1, PLK2, PLK3, PLK4 or p38α MAPK; expressed in transfected cells; host or cells: HeLa, transient, digitonin-permeabilised
T1 sequence (O00444 1-970): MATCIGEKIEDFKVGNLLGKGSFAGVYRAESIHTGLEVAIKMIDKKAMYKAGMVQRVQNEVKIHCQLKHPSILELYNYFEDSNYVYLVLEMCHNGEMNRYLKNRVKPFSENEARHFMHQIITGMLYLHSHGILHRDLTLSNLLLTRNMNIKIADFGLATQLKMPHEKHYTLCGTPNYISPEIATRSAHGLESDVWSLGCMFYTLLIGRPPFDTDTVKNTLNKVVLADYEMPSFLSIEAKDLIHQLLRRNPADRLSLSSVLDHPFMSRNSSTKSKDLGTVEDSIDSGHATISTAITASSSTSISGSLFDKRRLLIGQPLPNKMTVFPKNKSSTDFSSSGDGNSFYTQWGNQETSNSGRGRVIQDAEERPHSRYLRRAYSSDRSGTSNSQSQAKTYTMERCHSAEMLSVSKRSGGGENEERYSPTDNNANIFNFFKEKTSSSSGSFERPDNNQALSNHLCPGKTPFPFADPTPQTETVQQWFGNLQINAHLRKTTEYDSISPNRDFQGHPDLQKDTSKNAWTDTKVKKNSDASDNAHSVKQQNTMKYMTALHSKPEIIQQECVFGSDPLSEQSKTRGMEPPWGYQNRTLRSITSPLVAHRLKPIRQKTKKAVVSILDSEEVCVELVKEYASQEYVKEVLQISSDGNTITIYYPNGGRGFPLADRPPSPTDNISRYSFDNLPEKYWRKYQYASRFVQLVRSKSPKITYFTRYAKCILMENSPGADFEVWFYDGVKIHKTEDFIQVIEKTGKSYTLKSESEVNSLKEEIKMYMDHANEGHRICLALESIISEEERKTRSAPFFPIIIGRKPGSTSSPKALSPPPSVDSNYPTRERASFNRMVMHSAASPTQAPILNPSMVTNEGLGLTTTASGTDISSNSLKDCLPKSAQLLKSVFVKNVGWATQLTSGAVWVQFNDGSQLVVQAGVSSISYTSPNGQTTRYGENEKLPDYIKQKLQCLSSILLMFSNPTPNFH
Method: (§1) HeLa cells were transfected with plasmids encoding NanoLuc fused to the N-termini of full-length human PLK1, PLK2, PLK3, PLK4 or p38α MAPK. Twenty-four h after transfection, the thermal stability of the fusion proteins was tested using a modified version of the assay protocol supplied by Promega. Briefly, cells were harvested by tyrpsinisation and centrifugation, counted, and resuspended to 200,000 cells/ml in 3mls of serum-free OptiMEM media. Cells were then permeabilised using with 50ug/ml digitonin in DMSO for 5 min and incubated with test compounds at 100uM, plus protease inhibitor cocktail (Promega G6521), in a final concentration of 5% DMSO for 1 h at 37°C. After incubation, 100 μl/well of cells were aliquoted into a 96-well, thin-walled PCR plate and then heated for 3 minutes using a pre-warmed MJ Tetrad DNA Engine set to run a temperature gradient of 42 to 66°C. The plates were then cooled to room temperature for 10 min, and then 80μl of each sample was transferred to a white-walled 96-well Nunc plate before NanoBRET™ NanoGlo Substrate diluted in Opti-MEM was added. NanoLuc enzyme activity was read out within 10 min using a BMG Clariostar plate reader.
(§2) Nanoluciferase enzyme activity of PLK1- or PLK4-Nanoluc fusion protein was analysed using GraphPad Prism. Data were normalised as follows: (treatment A RLU value at X°C temp/treatment A RLU value at 42°C temp) x 100. Using the Boltzmann sigmoidal equation, a curve was then fitted to the normalised data. From this non-linear fit, a V50 value was generated, which in this context represents the aggregation onset temperature (Tagg), at which 50% of the PLK1- or PLK4-Nanoluc fusion protein has aggregated.

[3] = target: T2, NanoLuc-PLK1 fusion protein (Homo sapiens, UniProt P53350); assay: NanoLuc thermal shift assay; conditions: compound at 100 μM
T2 construct: NanoLuc fused to the N-termini of full-length human PLK1, PLK2, PLK3, PLK4 or p38α MAPK; expressed in transfected cells; host or cells: HeLa, transient, digitonin-permeabilised
T2 sequence (P53350 whole entry, the tested form may be a part): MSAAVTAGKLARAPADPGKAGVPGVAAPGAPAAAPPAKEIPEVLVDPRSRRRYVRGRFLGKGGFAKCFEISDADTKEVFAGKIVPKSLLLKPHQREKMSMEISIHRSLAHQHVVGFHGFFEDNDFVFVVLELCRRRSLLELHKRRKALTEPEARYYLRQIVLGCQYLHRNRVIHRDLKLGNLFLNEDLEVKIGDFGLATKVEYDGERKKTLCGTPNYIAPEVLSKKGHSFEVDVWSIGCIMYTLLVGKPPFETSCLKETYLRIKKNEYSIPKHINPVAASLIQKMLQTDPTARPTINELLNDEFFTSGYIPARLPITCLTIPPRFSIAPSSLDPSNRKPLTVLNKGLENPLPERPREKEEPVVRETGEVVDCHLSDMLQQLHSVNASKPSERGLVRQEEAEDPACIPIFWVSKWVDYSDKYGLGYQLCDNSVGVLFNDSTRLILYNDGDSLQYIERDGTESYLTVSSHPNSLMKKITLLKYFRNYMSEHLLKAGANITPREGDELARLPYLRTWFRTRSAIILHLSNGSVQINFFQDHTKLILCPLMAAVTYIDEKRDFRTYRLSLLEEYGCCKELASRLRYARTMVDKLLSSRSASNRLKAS
Method: as §1, §2

[4] = system: SW48 parental (KRAS WT) cells; assay: Cell viability (SRB), SW48 parental; conditions: Homo sapiens
Method: SW48 Parental, SW48 G12D, Panc-1, HPAF-II, Panc 02.03 and Panc 05.04 cell lines were seeded overnight at 5000 cells per well in a 96 well plate in recommended media (ATCC). Compounds were added the following day and viability was measured at 72h using the sulforhodamine B (SRB) colorimetric assay as follows. Cells were fixed by replacing media with 1% v/v Trichloroacetic Acid (TCA) (Sigma-Aldrich) at 4°C and incubated for 1h also at 4°C. Wells were washed thoroughly with copious amounts of deionised water before staining with Sulforhodamine B (SRB) (Sigma-Aldrich) solution (0.057% w/v in 1% v/v Acetic Acid (VWR)) for 30 min. Stain was aspirated and wells washed with several changes of 1% v/v Acetic Acid until unbound stain was removed, before air-drying. Bound stain was solubilized with 100μl / well 10mM Tris (pH 8.0) (Trizma Base (121.1) Sigma-Aldrich) with agitation for 10 min. Fluorescence intensity was recorded at Ex540nm / Em590nm using a BMG Pherastar Plus plate reader ([Vichai and Kirtikara, 2006]).

| SMILES | GI50 ([1]; organoids KRAS MUT p53 MUT #2, n=2, read-out: Mean GI50) | thermal stability of NanoLuc-PLK4 [2] | thermal stability of NanoLuc-PLK1 [3] | GI50 ([4]; SW48 Parental, 72 hr, Figure 5D, read-out: GI50) | GI50 ([1]; read-out: Mean GI50, organoids KRAS MUT p53 MUT #1, n=2) | GI50 ([1]; read-out: Mean GI50, organoids KRAS MUT p53 MUT #2, n=2) | GI50 ([4]; SW48) |
| --- | --- | --- | --- | --- | --- | --- | --- |
| CN(C)CCNC(=O)c1ccc(-c2ccc(-c3ccc(Cl)cc3)n2-c2ccccc2C(F)(F)F)cc1 [Poloppin-II] | 22.9 µM | engages | engages | 0.0398 ± 0.00112 µM |  |  |  |
| O=C(O)CCc1ccc(-c2ccc(Br)cc2)n1-c1ccccc1C(F)(F)F [Poloppin] |  | increases the thermal stability | increases the thermal stability |  | 22.9 µM | 28.4 µM | 13.7 ± 1.03 µM |
